# Assay results reported in patent publication EP1902732A1, “PROPHYLACTIC/THERAPEUTIC AGENT FOR HER2-EXPRESSING CANCER” (Takeda Pharmaceutical Company Limited, priority 2005, dated 2006).
# Legend:
# HER2 [1] = test: Western blotting of phosphorylated HER2 in SK-BR-3 cells; format: cell-based, human; conditions: Example 4, medium glucose 0.1 mg/mL, 5 mg/mL, two hours
# Procedure: (§1) HER2-expressing human cancer cell line SK-BR-3 (purchased from ATCC) was seeded into a 24-multiwell plate (4.0 x 10^5 cells/well) and cultured overnight in a carbon dioxide gas incubator (5% CO2, 37°C). Then, the medium was exchanged for a medium with a glucose content of 0.1 mg/mL and cultured for another 2 hours. A glucose antimetabolite 2-deoxyglucose was added to a final concentration of 5 mg/mL. Two hours later, the broth was removed and the cells were lysed with an SDS sample buffer (200 µL). This cell lysate (8 µL) was separated by an SDS-PAGE method (gel concentration: 7.5-15%) (Shagger et al., Analytical Biochemistry, No. 166, pp. 368-379, 1987). Then, western blotting analysis was performed in the same manner as in Example 1 to detect phosphorylated HER2, phosphorylated Akt and phosphorylated MAPK.
# Akt [2] = test: Western blotting of phosphorylated Akt in SK-BR-3 cells; format: cell-based, human; conditions: Example 4, medium glucose 0.1 mg/mL, 5 mg/mL, two hours
# Procedure: as §1
# MAPK [3] = test: Western blotting of phosphorylated MAPK in SK-BR-3 cells; format: cell-based, human; conditions: Example 4, medium glucose 0.1 mg/mL, 5 mg/mL, two hours
# Procedure: as §1
# HER2 [4] = test: Western blotting of phosphorylated HER2 in BT-474 cells; format: cell-based, human
# Procedure: (§2) Human HER2-expressing human breast cancer cell line BT-474 (purchased from American Tissue Culture Collection (ATCC)) was seeded into a 24-multiwell plate (BT-474: 1.2 x 10^5 cells/well), and cultured overnight in a carbon dioxide gas incubator (5% CO2, 37°C). A 4-fold dilution series of a mitochondrial respiratory chain complex inhibiting compound (complex I: rotenone, complex III: antimycin, complex V: oligomycin: Wako Pure Chemical Industries) was added starting from a final concentration of 1 µmol/L in 5 steps while continuing culture. After 2 hours, the broth was removed, and the cells were lysed with an SDS sample buffer (200 µL). Western blotting analysis was performed as follows. Specifically, this cell lysate (8 µL) was separated by an SDS-PAGE method (gel concentration: 7.5-15%) (Analytical Biochemistry, No. 166, pp. 368-379, 1987), and transferred to a nitrocellulose membrane (BioRad). Then, an antibody specific to phosphorylated HER2 (Cell signaling technology, Code# 2244), an anti-phosphorylated Akt antibody specific to downstream antiapoptotic signal transducing molecule Akt (Cell signaling technology, Code# 9271) and an anti-phosphorylated MAPK antibody specific to downstream proliferation signal transducing molecule MAPK (Cell signaling technology, Code# 9101) were used to detect the antibody with an ECL system (Amersham) to quantify the amount of phosphorylated protein by an image analysis.
# (§3) Human HER2-expressing human cancer cell line BT-474 (purchased from ATCC) was seeded into a 24-multiwell plate (1.2 x 10^5 cells/well) and cultured overnight in a carbon dioxide gas incubator (20% O2, 5% CO2, 37°C). A 3-fold dilution series of metformin that activates AMPK (The Journal of Biological Chemistry, Vol. 279, No. 42, pp. 43940-43951, 2004) was added starting from a final concentration of 15 mmol/L in 5 steps while continuing culture. Two hours later, the broth was removed and the cells were lysed with an SDS sample buffer (200 µL). This cell lysate (8 µL) was separated by an SDS-PAGE method (gel concentration: 7.5-15%) (Analytical Biochemistry, No. 166, pp. 368-379, 1987). Then, western blotting analysis was performed in the same manner as in Example 1 to quantify phosphorylated HER2, phosphorylated Akt and phosphorylated MAPK.
# Human HER2-expressing human breast cancer cell line BT-474 (purchased from American Tissue Culture Collection (ATCC)) was seeded into a 24-multiwell plate (BT-474: 1.2 x 10^5 cells/well), and cultured overnight in a carbon dioxide gas incubator (5% CO2, 37°C). Mitochondrial respiratory chain complex 1-inhibiting compound rotenone (Wako Pure Chemical Industries) was added in 5 steps at final concentrations of 1, 0.333, 0.111, 0.033 and 0.011 µmol/L while continuing culture. Two hours later, the broth was removed and the cells were lysed with an SDS sample buffer (200 µL). Then, this cell lysate was used to perform western blotting analysis. Specifically, this cell lysate (8 µL) was separated by an SDS-PAGE method (gel concentration: 7.5-15%) (Analytical Biochemistry, No. 166, pp. 368-379, 1987) and transferred to a nitrocellulose membrane (BioRad). Then, an antibody specific to phosphorylated HER2 (Cell signaling technology, Code# 2244), an AMPK antibody specific to AMPK (Cell signaling technology, Code# 2535) and an anti-phosphorylated AMPK antibody specific to phosphorylated AMPK (Cell signaling technology, Code# 2532) were used to detect the antibody by chemiluminescent detection with an ECL system (Amersham) to quantify an amount of phosphorylated protein with LAS-1000 plus image analysis device (FUJIFILM).
# Human HER2-expressing human breast cancer cell line BT-474 (purchased from American Tissue Culture Collection (ATCC)) was seeded into a 24-multiwell plate (BT-474: 1.2 x 10^5 cells/well) and cultured overnight in a carbon dioxide gas incubator (5% CO2, 37°C). […]
# Akt [5] = test: Western blotting of phosphorylated Akt in BT-474 cells; format: cell-based, human
# Procedure: as §2, §3
# MAPK [6] = test: Western blotting of phosphorylated MAPK in BT-474 cells; format: cell-based, human
# Procedure: as §2, §3
# [7] = tested on: BT-474 breast cancer cell; test: Viable cell count using Cell Counting Kit-F; format: cell-based, human; conditions: five days of culture
# Procedure: (§4) BT-474 breast cancer cell, MDA-MB-453 breast cancer cell, A549 non-small cell lung cancer cell and LNCaP prostate cancer cell were used as human HER2-expressing cells while MDA-MB-231 breast cancer cell and A498 kidney cancer cell (all purchased from ATCC) were used as HER2-nonexpressing cells. Each of the cells used had been seeded into a 96-plate at 500cells/150 µL/well and cultured overnight. Each of the compounds, i.e., antimycin (final concentrations: 1, 0.1, 0.01 and 0.001 µmol/L), 2,4-dinitrophenol (final concentrations: 0.6, 0.2, 0.06 and 0.02 mmol/L), metformin (final concentrations: 25, 5, 1 and 0.2 mmol/L) and AICAR (final concentrations: 25, 5, 1 and 0.2 mmol/L) was diluted with a medium and added for 50 µL/well at a time to the final concentrations mentioned above. Following five days of culture at 37°C in 5% CO2, the cells were counted using Cell Counting Kit-F (Dojindo Laboratories).
# (§5) Viable cell count using Cell Counting Kit-F was carried out by the following method according to the attached instruction. The supernatant was removed from the 96-well plate after five days of culture. Cell Counting Kit-F diluted 1000-fold with an RPMI medium (phenol red-free, serum-free) was added for 100 µL/well at a time. After 30 minutes of reaction at room temperature, fluorescence (excitation wavelength; 480 nm, fluorescent wavelength; 530 nm) was determined with a fluorescent plate reader.
# (§6) From the determination results, percentage of the fluorescence level in the wells added with the compound was determined assuming that the fluorescence level in the wells without the addition of the compound (control) is 100%, and the remaining cellular quantity was determined in % with respect to that of the control.
# (§7) BT-474 breast cancer cell, MDA-MB-453 breast cancer cell and LNCaP prostate cancer cell were used as human HER2-expressing cells while MDA-MB-231 breast cancer cell and A498 kidney cancer cell (all purchased from ATCC) were used as HER2-nonexpressing cells. Each of the cells used had been seeded into a 96-well plate at 500 cells/150 µL/well and cultured overnight. Troglitazone (final concentrations: 25, 6.25 and 1.56 µmol/L) was diluted with a medium, and added for 50 µL/well at a time to the final concentrations mentioned above. Following five days of culture at 37°C in 5% CO2, the cells were counted using Cell Counting Kit-F (Dojindo Laboratories).
# as §6, with “troglitazone” for “the compound”
# [8] = tested on: LNCaP prostate cancer cell; test: Viable cell count using Cell Counting Kit-F; format: cell-based, human; conditions: five days of culture
# Procedure: as §4, §5, §6, §7
# as §6, with “troglitazone” for “the compound”
# [9] = tested on: MDA-MB-453 breast cancer cell; test: Viable cell count using Cell Counting Kit-F; format: cell-based, human; conditions: five days of culture
# Procedure: as §4, §5, §6, §7
# as §6, with “troglitazone” for “the compound”
# [10] = tested on: A549 non-small cell lung cancer cell; test: Viable cell count using Cell Counting Kit-F; format: cell-based, human; conditions: HER2-expressing cancer, five days of culture
# Procedure: as §4, §5, §6
# DU145 = test: Viable cell count using Cell Counting Kit-F; format: cell-based; conditions: HER2-nonexpressing cancer, five days of culture
# A498 kidney cancer cell = test: Viable cell count using Cell Counting Kit-F; format: cell-based; conditions: five days of culture
# Procedure: as §4, §5, §6, §7
# as §6, with “troglitazone” for “the compound”
# [11] = tested on: MDA-MB-231 breast cancer cell; test: Viable cell count using Cell Counting Kit-F; format: cell-based; conditions: five days of culture
# Procedure: as §4, §5, §6, §7
# as §6, with “troglitazone” for “the compound”
# [12] = tested on: phosphorylated acetyl-CoA carboxylase (ACC); test: Western blotting of phosphorylated ACC in BT-474 cells; format: cell-based, human; conditions: Example 7, two hours, antimycin 1-0.01 nmol/L, oligomycin 100-1 ng/mL, 2,4-dinitrophenol 300-3 µmol/L
# Procedure: (§8) Human HER2-expressing human breast cancer cell line BT-474 (purchased from American Tissue Culture Collection (ATCC)) was seeded into a 24-multiwell plate (BT-474: 1.2 x 10^5 cells/well) and cultured overnight in a carbon dioxide gas incubator (5% CO2, 37°C). As an energy metabolism inhibitor having a mechanism that differed from that of rotenone, mitochondrial respiratory chain complex III-inhibiting compound antimycin (Wako Pure Chemical Industries) was added to final concentrations of 1, 0.3, 0.1, 0.03 and 0.01 nmol/L while continuing culture. Using another plate, mitochondrial respiratory chain complex V-inhibiting compound oligomycin (Wako Pure Chemical Industries) was added to final concentrations of 100, 30, 10, 3 and 1 ng/mL while continuing culture. In addition, 2,4-dinitrophenol was added to 300, 100, 30, 10 and 3 µmol/L while continuing culture. Two hours after the addition of the agent, the broth was removed and the cells were lysed with an SDS sample buffer (200 µL). Then, this cell lysate was used to perform western blotting analysis. Specifically, this cell lysate (8 µL) was separated by an SDS-PAGE method (gel concentration: 7.5-15%) (Analytical Biochemistry, No. 166, pp. 368-379, 1987) and transferred onto a nitrocellulose membrane (BioRad). Then, an antibody specific to phosphorylated HER2 (Cell signaling technology, Code# 2244), pACC antibody specific to phosphorylated acetyl-CoA carboxylase (ACC) (Cell signaling technology, Code# 3661) and anti-phosphorylated S6K antibody specific to phosphorylated S6 kinase (S6K) (Cell signaling technology, Code# 9209) were used to detect the antibody by chemiluminescent detection with an ECL system (Amersham) to quantify an amount of phosphorylated protein with LAS-1000 plus image analysis device (FUJIFILM).
# [13] = tested on: phosphorylated S6 kinase (S6K); test: Western blotting of phosphorylated S6K in BT-474 cells; format: cell-based, human; conditions: Example 7, two hours, antimycin 1-0.01 nmol/L, oligomycin 100-1 ng/mL, 2,4-dinitrophenol 300-3 µmol/L
# Procedure: as §8
# [14] = Example 5, 3-fold dilution series from 15 mmol/L in 5 steps, two hours
# [15] = Example 2, 4-fold dilution series from 1 µmol/L in 5 steps, 2 hours
smiles,measurement,setting,value
O=CC[C@@H](O)[C@H](O)[C@H](O)CO [2-deoxyglucose],HER2 phosphorylation,HER2 [1],suppressed phosphorylation of each protein
same,Akt phosphorylation,Akt [2],suppressed phosphorylation of each protein
same,MAPK phosphorylation,MAPK [3],suppressed phosphorylation of each protein
CN(C)C(=N)N=C(N)N [metformin],HER2 phosphorylation,HER2 [4]; [14],concentration-dependent suppression of HER2 phosphorylation
same,Akt phosphorylation,Akt [5]; [14],suppressions of Akt and MAPK phosphorylations were also confirmed
same,MAPK phosphorylation,MAPK [6]; [14],suppressions of Akt and MAPK phosphorylations were also confirmed
same,minimum concentrations for inhibiting cell proliferation for 50% or more,"[7]; BT474, HER2-expressing cancer",1 mmol/L
same,minimum concentrations for inhibiting cell proliferation for 50% or more,"[8]; LNCaP, HER2-expressing cancer",1 mmol/L
same,minimum concentrations for inhibiting cell proliferation for 50% or more,"[9]; MB453, HER2-expressing cancer",1 mmol/L
same,minimum concentrations for inhibiting cell proliferation for 50% or more,[10],5 mmol/L
same,minimum concentrations for inhibiting cell proliferation for 50% or more,DU145,>25 mmol/L
same,minimum concentrations for inhibiting cell proliferation for 50% or more,"A498 kidney cancer cell; A498, HER2-nonexpressing cancer",>25 mmol/L
same,minimum concentrations for inhibiting cell proliferation for 50% or more,"[11]; MB231, HER2-nonexpressing cancer",>25 mmol/L
CC[C@H]1/C=C/C=C/C[C@@H](C)[C@H](O)[C@@](C)(O)C(=O)[C@@H](C)[C@H](O)[C@@H](C)C(=O)[C@@H](C)[C@H](O)[C@@H](C)/C=C/C(=O)O[C@@H]2[C@H](C)[C@H](CC1)O[C@]1(CC[C@H](C)[C@H](C[C@@H](C)O)O1)[C@H]2C [oligomycin],HER2 phosphorylation,HER2 [4]; [15],suppression of HER2 phosphorylation was confirmed
same,HER2 phosphorylation,"HER2 [4]; Example 7, two hours, antimycin 1-0.01 nmol/L, oligomycin 100-1 ng/mL, 2,4-dinitrophenol 300-3 µmol/L",decreased dose-dependently
same,Akt phosphorylation,Akt [5]; [15],suppressions of Akt and MAPK phosphorylations were also confirmed
same,MAPK phosphorylation,MAPK [6]; [15],suppressions of Akt and MAPK phosphorylations were also confirmed
same,phosphorylation of ACC,[12],increased dose-dependently
same,phosphorylation of S6K,[13],suppressed
Cc1c(C)c2c(c(C)c1O)CCC(C)(COc1ccc(CC3SC(=O)NC3=O)cc1)O2 (stereo not drawn) [troglitazone],inhibition at 25 µM,"[7]; Homo sapiens, BT-474, 120 h, BT474 cell, 25 µmol/L, read-out: proliferation inhibited to (remaining cellular quantity in % with respect to that of the control)",50%
same,inhibition at 25 µM,"[8]; Homo sapiens, 120 h, LNCaP cell, 25 µmol/L, read-out: proliferation inhibited to (remaining cellular quantity in % with respect to that of the control)",48%
same,inhibition at 25 µM,"[9]; Homo sapiens, MDA-MB-453, 120 h, MB453 cell, 25 µmol/L, read-out: proliferation inhibited to (remaining cellular quantity in % with respect to that of the control)",25%
same,inhibition at 25 µM,"A498 kidney cancer cell; Homo sapiens, 120 h, A498 cell, HER2-nonexpressing, 25 µmol/L, read-out: proliferation inhibited to (remaining cellular quantity in % with respect to that of the control)",105%
same,inhibition at 25 µM,"[11]; Homo sapiens, 120 h, MDA-MB-231 cell, HER2-nonexpressing, 25 µmol/L, read-out: proliferation inhibited to (remaining cellular quantity in % with respect to that of the control)",100%
